# Measured values from patent US8765702B2, “Composition and methods for modulating cell proliferation and cell death” (Rosetta Genomics Ltd., priority 2007, dated 2014).
# Tests used:
# [1] = system: Notch pathway in A172 cells; experiment: qRT-PCR of Notch pathway mRNAs (DLL1, Jag1, Notch1, Hey1); type: cell-based; conditions: 72 hours after transfection; for mRNA levels of DLL1, Jag1 or Notch1: normalized to GAPDH
# Method: (B) A172 cells were transfected with either scrambled or anti-miR-34a LNA oligos. RNA was isolated 72 hours later, and subjected to qRT-PCR to determine relative levels of expression of DLL1, Jag1 and Notch1 (normalized to GAPDH).
# (C) A172 cells were transfected with pcDNA3-pm34a-EST-MUT (MUT) or pcDNA3-pm34a-EST (EST). RNA extraction and analysis was as in (B).
# (§1) RNA quantification was performed by real-time qRT-PCR in an ABI PRISM 7300 Sequence Detection System (Applied Biosystems) with SYBR Green Master Mix (Applied Biosystems). For mRNA quantification, cDNA produced with random hexamers and MMLV reverse transcriptase (Promega) from 10 ng of total RNA was subjected to RT-PCR using super SYBR-green ready mix (Applied Biosystems) and specific DNA primers (Table 1 for the EST, Table 2 for p21, Hdm2, GAPDH and HPRT). For small RNAs (U6, 5S, microRNAs), 50 ng total RNA was converted to cDNA using specific primers for reverse transcription (Ambion) and MMLV reverse transcriptase. Relative expression levels were determined by real-time qRT-PCR using super SYBR-green ready mix and specific primers (Ambion). Quantification was done using standard curves. All reactions were performed in duplicate.
# A complementary, opposite effect on Hey1 expression was seen when miR-34a was over-expressed in A172 cells.
# [2] = system: U2OS cells; experiment: Apoptosis by microscopy and FACS-based sub-G1 DNA content; type: cell-based, human
# [3] = system: Notch pathway in MCF7 cells; experiment: qRT-PCR of Notch pathway mRNAs (DLL1, Jag1, Notch1, Hey1); type: cell-based, human
# Method: (D) MCF7 cells were transfected with scramble or anti-miR-34a LNA oligos. 24 h post-transfection, 20 μM Nutlin-3 was added to the half of the samples for additional 48 h. RNA extraction and analysis was as in (B).
# as §1
# [4] = system: p53 binding to the pm34a-EST p53BS; experiment: Chromatin immunoprecipitation (ChIP); type: cell-based, human; conditions: HCT116 cells, 50 μg/ml 5-FU for 16 hours
# Method: (A) HCT116 cells stably expressing shRNA specific for p53 (sip53) or for LacZ (siLacZ) were either left untreated or treated for 16 hours with 50 μg/ml 5-FU, and then subjected to ChIP analysis with antibodies directed against p53 or HA as a control. The precipitated DNA was subjected to quantitative real-time PCR analysis with primers spanning the 5′ p53BS of the p21 gene, the putative p53BS of the pm34a-EST, or the GAPDH gene as a negative control. (B) Schematic representation of the DNA fragment (thick bar) cloned into the luciferase reporter plasmid. The positions of the p53BS and exons 1 and 2 of the pm34a-EST are also indicated. (C) The putative promoter of the pm34a-EST was cloned upstream to the firefly luciferase reporter gene in the pGL3-basic vector to yield plasmid EST-Prom-luc. EST-Prom-luc was transfected into H1299 cells without or with the indicated amounts of p53 expression plasmid. Luciferase activity was then measured by the dual luciferase assay, and normalized for Renilla luciferase activity. […]
# ChIP analysis was performed as described (Minsky, 2004), employing the CM1 p53-specific polyclonal antibody or anti-HA polyclonal antibody as a control. […] Quantification of precipitated DNA was preformed by real-time qPCR, using an ABI PRISM 7300 Sequence Detection System. […]
# [5] = system: EST-Prom-luc (miR-34a putative promoter); experiment: Dual luciferase assay with EST-Prom-luc in HCT116 cells; type: cell-based, human; conditions: HCT116 control (siLacZ) cells, 5-FU for 16 hours
# [6] = system: pm34a-EST, miR-34a and p21 mRNA in H1299-TS cells; experiment: qRT-PCR of p53-dependent induction in the presence of cycloheximide; type: cell-based, human; conditions: H1299-TS cells shifted to 32° C., 80 nM CHX
# Method: (A) H1299 and 111299-TS cells were either left untreated or supplemented with 80 nM cycloheximide (CHX) for 30 min before being shifted to either 37° C. or 32° C. Cells were then incubated for the indicated time periods with continuous exposure to the drug. RNA was isolated and subjected to qRT-PCR analysis with primers specific for pm34a-EST. Values were normalized for HPRT in the same samples. (B) H1299-TS cells were processed essentially as in (A), except that CHX was added only where indicated. RNA was subjected to qRT-PCR with primers specific for mature miR-34a. Values were normalized for U6 RNA in the same samples. (C) The same RNA samples as in (B) were subjected to qRT-PCR analysis with primers specific for p21 mRNA. […]
# as §1, with “For small RNAs (U6, 5S, microRNAs), 50 ng total RNA was converted to cDNA using specific primers for reverse transcription (Ambion) and MMLV reverse transcriptase.” left out, “All reactions were performed in duplicate.” left out
# [7] = system: p53 mRNA and p21 mRNA in U2OS cells; experiment: qRT-PCR analysis of p53 mRNA and p21 mRNA after Nutlin-3; type: cell-based, human; conditions: 20 μM Nutlin-3 for 48 h, normalized to HPRT
# Method: (A) HCT116 cells stably expressing shRNA against p53 (sip53) or LacZ (siLacZ) were either treated with 50 μg/ml 5-FU for 16 h or left untreated. […] total RNA from each sample was subjected to qRT-PCR analysis of p21 mRNA. Results were normalized to HPRT expression in the same samples. (B) U2OS cells stably expressing shRNA against p53 (sip53) or LacZ (siLacZ) were either treated with 20 μM Nutlin-3 for 48 h or left untreated. RNA from each sample was subjected to qRT-PCR analysis of p53 mRNA and p21 mRNA. […] The modest increase in p53 mRNA (1.8 fold) has not been further investigated. (C) Western blot analysis of 20 μg total protein extracted from parallel cultures treated as in (A). […]
# as §1, with “For small RNAs (U6, 5S, microRNAs), 50 ng total RNA was converted to cDNA using specific primers for reverse transcription (Ambion) and MMLV reverse transcriptase.” left out, “All reactions were performed in duplicate.” left out
# [8] = system: Bcl-2 mRNA; experiment: Real-time PCR analysis of Bcl-2 mRNA; type: cell-based, human; conditions: H1299 or U2OS cells, 100 nM pre-miR-34a RNA oligonucleotides, normalized to GAPDH mRNA
# Method: (§2) (A) H1299 or U2OS cells were transiently transfected with 100 nM control scrambled RNA (cont) or pre-miR-34a RNA oligonucleotides (pre-34a, Ambion) using siPORT NeoFX transfection reagent (Ambion). Three days post-transfection, cell extracts were prepared. 30 μg of total protein was subjected to SDS-15% polyacrylamide gel electrophoresis followed by Western blot analysis with antibodies directed against GAPDH (MAB374, Chemicon) and Bcl-2 (C-2, Santa Cruz). (B) Total RNA was extracted from identical cultures as in (A) using the mirVana miRNA isolation kit (Ambion). RNA was converted to cDNA using random hexamers and MMLV reverse transcriptase (Promega). cDNA obtained from 10 ng total RNA was subjected to real-time PCR analysis using specific primers for Bcl-2 mRNA (forward primer—5′-[…]-3′ (SEQ ID NO: 42), reverse primer—5′-ATCAAACAGAGGCCGCATG-3′ (SEQ ID NO: 43) and super SYBR-green ready mix (Applied Biosystems) in an ABI PRISM 7300 Sequence Detection System (Applied Biosystems). Bcl-2 mRNA levels were normalized relative to GAPDH mRNA (forward primer—5′-[…]-3′ (SEQ ID NO: 44), reverse primer—5′-AAAAGCAGCCCTGGTGACC-3′) (SEQ ID NO: 45) in the same samples. RU=relative units. (C) 200 ng of total RNA obtained from (B) was subjected to quantitative real-time RT-PCR using primers for mature miR-34a. Values were normalized relative to U6 RNA levels in the same samples. […]
# [9] = system: Bcl-2; experiment: Western blot analysis of Bcl-2 protein; type: cell-based, human; conditions: H1299 or U2OS cells, 100 nM pre-miR-34a RNA oligonucleotides, three days post-transfection
# Method: as §2
compound,measurement,setting,value
"5′-aacaaccagctaagacactgcca-3′ (antisense AACAACCAGCTAAGACACTGCCA; LNA-modified, pattern not given here) [LNA anti-miR-34a]",expression of Hey1,[1],up-regulation
same,"mRNA levels of DLL1, Jag1 or Notch1",[1],no effect
same,protection from apoptosis in p53 knockdown cells,[2]; U2OS cells stably expressing p53 shRNA (sip53),not observed
same,spontaneous apoptosis,"[2]; U2OS cells, 100 nM LNA, versus scrambled oligonucleotide",decrease in spontaneous apoptosis
same,apoptosis due to Nutlin-3 treatment,"[2]; U2OS siLacZ cells, 100 nM LNA with 20 μM Nutlin-3 for 48 hours",partial protection
same,expression of Hey1 following p53 activation,[3]; 20 μM Nutlin-3 for 48 h,stronger effect
same,expression of Hey1,[3]; versus scrambled LNA,up-regulation
same,"mRNA levels of DLL1, Jag1 or Notch1",[3]; versus scrambled LNA,no effect
"O=c1[nH]cc(F)c(=O)[nH]1 [5-FU, 5 fluorouracil]",p53 binding to the pm34a-EST p53BS,[4],further augmented
same,luciferase activity,[5],nearly twofold increase
"C[C@@H]1C[C@@H]([C@H](O)CC2CC(=O)NC(=O)C2)C(=O)[C@@H](C)C1 [CHX, cycloheximide]",induction of pm34a-EST or mature miR-34a,[6],did not prevent the induction
same,p21 mRNA induction,[6],nor did it affect
COc1ccc(C2=N[C@@H](c3ccc(Cl)cc3)[C@@H](c3ccc(Cl)cc3)N2C(=O)N2CCNC(=O)C2)c(OC(C)C)c1 [Nutlin-3],apoptosis,"[2]; U2OS cells, 20 μM Nutlin-3 for 48 hours",enhanced apoptosis
same,p21 mRNA increase,[7],10.3 fold
same,p53 mRNA increase,[7],1.8 fold
same,Jag1 and Notch1 mRNA levels,[3]; 20 μM Nutlin-3 for 48 h,induction
"miR-34a: microRNA SEQ ID NO: 1; overexpressed via pcDNA3-pm34a-EST (A172) or pre-miR-34a RNA oligonucleotides, Ambion (Bcl-2 study) (UGGCAGUGUCUUAGCUGGUUGUU; listed as RNA, chemistry not fully specified; listed as Homo sapiens)",Bcl-2 mRNA,[8],without a measurable decrease
same,Bcl-2 protein,[9],decreased
same,expression of Hey1,[1],reduction in Hey1 mRNA
same,"mRNA levels of DLL1, Jag1 or Notch1",[1],absence of any change
